Experimental data published in patent US20250032477A1, “COMPOUNDS, PHARMACEUTICAL COMPOSITIONS, AND METHODS FOR THE TREATMENT, PREVENTION, OR MANAGEMENT OF HYPERPROLIFERATIVE DISORDERS” (VINCERX PHARMA GMBH, priority 2021, published 2025).
Where a name gives a salt, the structure may show the parent alone. Read-outs that look alike come from different tables or passages of the source.

What was measured:
HT29 [1] = assay: Cytotoxicity in vitro in the presence and absence of elastase (MTT); type: cell-based, human
Procedure: (§1) Cultivation of cells was performed according to standard procedures with the media recommended by the provider. The cells, in a total volume of 100 μL, were seeded in a 96-well plate with a white bottom (#3610). After a 24 h incubation period at 37° C. and […], the medium was exchanged by adding 90 μL fresh medium. The treatment started by adding the test compound in 10 μL of culture medium to the cells in triplicates. Concentrations ranging from 10^−5 M to 10^−13 M were chosen. Two identically treated sets of samples were prepared. One set was treated with the test compound alone, whereas to the second set the compound and 10 nM elastase was added followed by a 72 h incubation period at 37° C. and 5% CO2. The proliferation was detected using the MTT assay (ATCC). At the end of the incubation period the MTT reagent was added to all samples for 4 h. Lysis of the cells followed by addition of the detergent was done overnight. The formed dye was detected at 570 nm. The proliferation of untreated but otherwise identically handled cells was define as the […].

786-O [2] = assay: as above; type: cell-based, human
Procedure: as §1

NCI H292 [3] = assay: as above; type: cell-based, human
Procedure: as §1

SUM149 [4] = assay: as above; type: cell-based
Procedure: as §1

in vitro = settings: human, Caco-2
Procedure: Caco-2: The cell permeability of a substance can be investigated by means of in vitro testing in a flux assay using Caco-2 cells [M. D. Troutman and D. R. Thakker, Pharm. Res. 20 (8), 1210-1224 (2003)]. For this purpose, the cells were cultured for 15-16 days on 24-well filter plates. For the determination of permeation, the respective test substance was applied in a HEPES buffer to the cells either apically (A) or basally (B) and incubated for 2 hours. After 0 hours and after 2 hours, samples were taken from the cis and trans compartments. The samples were separated by HPLC (Agilent 1200, Böblingen, Germany) using reverse phase columns. The HPLC system was coupled via a Turbo Ion Spray Interface to a Triple Quadropol mass spectrometer API 4000 (AB SCIEX Deutschland GmbH, Darmstadt, Germany). The permeability was evaluated on the basis of a Papp value, which was calculated using the formula published by Schwab et al. [D. Schwab et al., J. Med. Chem. 46, 1716-1725 (2003)]. A substance was classified as actively transported when the ratio of Papp (B-A) to Papp (A-B) (efflux ratio) was >2 or <0.5. Compounds with an efflux ratio of 0.5-2 are considered not actively transported. In Table 5, reference compounds are provided for comparison. Ref 1 is exatecan mesylate, Ref 2 is DXd, and Ref 3 is 10,11-methylenedioxy-camptothecin (FL118).

SUM149 [5] = assay: Cytotoxicity assay (Version 2), automated, AC50, with or without elastase; type: cell-based
Procedure: as §1
(§2) The Cytotoxicity assay (Version 2) was performed as above described. Some changes were applied as the assays were performed in an automated fashion and the IC50 values determination was changed. Here the change in metabolic activity of the cells, in percent, was calculated by normalization of the measured values to the absorbance values of medium containing wells without cells (=−100%) and the absorbance of the DMSO-treated cells (=0%). AC50 values (activity concentration at −50%) were determined by means of a 4 parameter Hill-fit using GeneData Screener software.

HT29 [6] = assay: as above; type: cell-based, human
Procedure: as §1, §2

786-O [7] = assay: as above; type: cell-based, human
Procedure: as §1, §2

NCI H292 [8] = assay: as above; type: cell-based, human
Procedure: as §1, §2

[9] = Homo sapiens, HT-29, HT29 cells, with 10 nM elastase, 72 h, MTT, read-out: HT29 IC50 w elastase
[10] = Homo sapiens, HT-29, HT29 cells, without elastase, 72 h, MTT, read-out: HT29 IC50 w/o
[11] = Homo sapiens, 786-0, 786-O cells, with 10 nM elastase, 72 h, MTT, read-out: 786-O IC50 w elastase
[12] = Homo sapiens, 786-0, 786-O cells, without elastase, 72 h, MTT, read-out: 786-O IC50 w/o
[13] = Homo sapiens, NCI H292 cells, with 10 nM elastase, 72 h, MTT, read-out: NCI H292 IC 50 w elastase
[14] = Homo sapiens, NCI H292 cells, without elastase, 72 h, MTT, read-out: NCI H292 IC 50 w/o
[15] = SUM149 cells, with 10 nM elastase, 72 h, MTT, read-out: SUM149 IC50 w elastase
[16] = SUM149 cells, without elastase, 72 h, MTT, read-out: SUM149 IC50 w/o

SMILES | IC50 (HT29 [1]; [9]) [nM] | IC50 (HT29 [1]; [10]) [nM] | IC50 (786-O [2]; [11]) [nM] | IC50 (786-O [2]; [12]) [nM] | IC50 (NCI H292 [3]; [13]) [nM] | IC50 (NCI H292 [3]; [14]) [nM] | IC50 (SUM149 [4]; [15]) [nM] | IC50 (SUM149 [4]; [16]) [nM] | Papp A→B at 2 h (in vitro) [×10⁻⁶ cm/s] | efflux ratio at 2 h (in vitro) | also measured
CC[C@@]1(O)C(=O)OCc2c1cc1n(c2=O)Cc2c-1nc1cc(F)c(C)c3c1c2[C@@H](NC(=O)Cc1ccncc1)CC3 [Compound 9, N-[(1S,9S)-9-ethyl-5-fluoro-9-hydroxy-4-methyl-10,13-dioxo-2,3,9,10,13,15-hexahydro-1H,12H-benzo[de]pyrano[3′,4′:6,7]indolizino[1,2-b]quinolin-1-yl]-2-(pyridin-4-yl)acetamide] | 0.1 to 1 | 1.1 to 10 | 0.1 to 1 | 0.1 to 1 | 0.1 to 1 | 0.1 to 1 | 0.01 to 0.1 | 0.01 to 0.1 | 0.1 to 0.9 | > 2 | 
CCN[C@H]1CCc2c(C)c(F)cc3nc4c(c1c23)Cn1c-4cc2c(c1=O)COC(=O)[C@]2(O)CC.O=C(O)C(F)(F)F [Compound 16, trifluoroacetic acid (1S,9S)-9-ethyl-1-(ethylamino)-5-fluoro-9-hydroxy-4-methyl-1,2,3,9,12,15-hexahydro-10H,13H-benzo[de]pyrano[3′,4′:6,7] indolizino[1,2-b]quinoline-10,13-dione (1/1)] | 0.1 to 1 | 0.1 to 1 | 0.1 to 1 | 0.1 to 1 | 0.1 to 1 | 0.1 to 1 | 0.01 to 0.1 | 0.01 to 0.1 | 10 to 99.9 | 0.5 to 2 | 
CC[C@@]1(O)C(=O)OCc2c1cc1n(c2=O)Cc2c-1nc1cc(F)c(C)c3c1c2[C@@H](NC(C)=O)CC3 [Compound 7, N-[(1S,9S)-9-ethyl-5-fluoro-9-hydroxy-4-methyl-10,13-dioxo-2,3,9,10,13,15-hexahydro-1H,12H-benzo[de]pyrano[3′,4′:6,7]indolizino[1,2-b]quinolin-1-yl]acetamide] | 0.01 to 0.1 | 0.01 to 0.1 | 0.01 to 0.1 | 0.01 to 0.1 | 0.01 to 0.1 | 0.01 to 0.1 | < 0.01 | < 0.01 | 0.1 to 0.9 | > 2 | 
CCCNC(=O)Nc1cccc(S(=O)(=O)Nc2cccc([C@@H](CC(=O)O)NC(=O)Nc3ccc(NC(=O)NCCOCCOCCOCCC(=O)N[C@@H](CC(=O)O)C(=O)N4CCC[C@H]4C(=O)N[C@H](C(=O)O[C@]4(CC)C(=O)OCc5c4cc4n(c5=O)Cc5cc6cc7c(cc6nc5-4)OCO7)C(C)C)cc3)c2)c1 [Compound 5, (7S)-7-ethyl-8,11-dioxo-7,8,11,13-tetrahydro-2H,10H-[1,3]dioxolo[4,5-g]pyrano [3′,4′:6,7]indolizino[1,2-b]quinolin-7-yl N-(14-{4-[({(1R)-2-carboxy-1-[3-({3-[(propylcarbamoyl)amino]benzene-1-sulfonyl}amino)phenyl]ethyl}carbamoyl)amino]anilino}-14-oxo-4,7,10-trioxa-13-azatetradecanan-1-oyl)-L-alpha-aspartyl-L-prolyl-L-valinate-bis sodium salt] |  |  |  |  |  |  |  |  |  |  | IC50 (HT29 [1]; read-out: HT29 IC50 w elastase): < 0.01 nM; IC50 (HT29 [1]; read-out: HT29 IC50 w/o): 10 to 100 nM; IC50 (786-O [2]; read-out: 786-O IC50 w elastase): < 0.01 nM; IC50 (786-O [2]; read-out: 786-O IC50 w/o): 1.1 to 10 nM; IC50 (NCI H292 [3]; read-out: NCI H292 IC 50 w elastase): < 0.01 nM; IC50 (NCI H292 [3]; read-out: NCI H292 IC 50 w/o): 1.1 to 10 nM; AC50 (SUM149 [5]; read-out: SUM149 AC50 +elastase): < 1 nM; AC50 (SUM149 [5]; read-out: SUM149 AC50 −elastase): 11 to 100 nM; IC50 (SUM149 [4]; read-out: SUM149 IC50 w elastase): < 0.01 nM; IC50 (SUM149 [4]; read-out: SUM149 IC50 w/o): 1.1 to 10 nM; AC50 (HT29 [6]; read-out: HT29 AC50 +elastase): 1.1 to 10 nM; AC50 (HT29 [6]; read-out: HT29 AC50 −elastase): > 100 nM; AC50 (786-O [7]; read-out: 786-O AC50 +elastase): 1.1 to 10 nM; AC50 (786-O [7]; read-out: 786-O AC50 −elastase): > 100 nM; AC50 (NCI H292 [8]; read-out: NCI H292 AC50 +elastase): < 1 nM; AC50 (NCI H292 [8]; read-out: NCI H292 AC50 −elastase): > 100 nM
CCCNC(=O)Nc1cccc(S(=O)(=O)Nc2cccc([C@@H](CC(=O)O)NC(=O)Nc3ccc(NC(=O)NCCOCCOCCOCCC(=O)N[C@@H](CC(=O)O)C(=O)N4CCC[C@H]4C(=O)N[C@H](C(=O)O[C@]4(CC)C(=O)OCc5c4cc4n(c5=O)Cc5c-4nc4cc(F)c(C)c6c4c5[C@@H](N)CC6)C(C)C)cc3)c2)c1 [Compound 4b, disodium (1S,9S)-1-amino-9-ethyl-5-fluoro-4-methyl-10,13-dioxo-2,3,9,10,13,15-hexahydro-1H,12H-benzo[de]pyrano[3′,4′:6,7]indolizino[1,2-b]quinolin-9-yl 1-{(2S)-2-(carboxylatomethyl)-17-[4-({[(1R)-2-carboxylato-1-{3-[({3-[(propylcarbamoyl)amino]phenyl}sulfonyl)amino]phenyl}ethyl]carbamoyl}amino)anilino]-4,17-dioxo-7,10,13-trioxa-3,16-diazaheptadecan-1-oyl}-L-prolyl-L-valinate] |  |  |  |  |  |  | < 0.01 | 1.1 to 10 |  |  | IC50 (HT29 [1]; HT29 cells, with 10 nM elastase, 72 h, MTT, read-out: HT29 IC50 w elastase): 0.1 to 1 nM; IC50 (HT29 [1]; HT29 cells, without elastase, 72 h, MTT, read-out: HT29 IC50 w/o): 10 to 100 nM; IC50 (786-O [2]; 786-O cells, with 10 nM elastase, 72 h, MTT, read-out: 786-O IC50 w elastase): 0.01 to 0.1 nM; IC50 (786-O [2]; 786-O cells, without elastase, 72 h, MTT, read-out: 786-O IC50 w/o): 10 to 100 nM; IC50 (NCI H292 [3]; NCI H292 cells, with 10 nM elastase, 72 h, MTT, read-out: NCI H292 IC 50 w elastase): 0.01 to 0.1 nM; IC50 (NCI H292 [3]; NCI H292 cells, without elastase, 72 h, MTT, read-out: NCI H292 IC 50 w/o): 1.1 to 10 nM; AC50 (SUM149 [5]; SUM149 cells, Version 2, with elastase, activity concentration at −50%, read-out: SUM149 AC50 +elastase): < 1 nM; AC50 (SUM149 [5]; SUM149 cells, Version 2, without elastase, activity concentration at −50%, read-out: SUM149 AC50 −elastase): 11 to 100 nM; AC50 (HT29 [6]; HT29 cells, Version 2, with elastase, activity concentration at −50%, read-out: HT29 AC50 +elastase): 1.1 to 10 nM; AC50 (HT29 [6]; HT29 cells, Version 2, without elastase, activity concentration at −50%, read-out: HT29 AC50 −elastase): > 100 nM; AC50 (786-O [7]; 786-O cells, Version 2, with elastase, activity concentration at −50%, read-out: 786-O AC50 +elastase): 1.1 to 10 nM; AC50 (786-O [7]; 786-O cells, Version 2, without elastase, activity concentration at −50%, read-out: 786-O AC50 −elastase): > 100 nM; AC50 (NCI H292 [8]; NCI H292 cells, Version 2, with elastase, activity concentration at −50%, read-out: NCI H292 AC50 +elastase): 1.1 to 10 nM; AC50 (NCI H292 [8]; NCI H292 cells, Version 2, without elastase, activity concentration at −50%, read-out: NCI H292 AC50 −elastase): > 100 nM
